Paper PMC9785194, “New Dibenzo-α-pyrone Derivatives with α-Glucosidase Inhibitory Activities from the Marine-Derived Fungus Alternaria alternata” (Marine Drugs, 2022)

Experiments:
α-glucosidase [1] = assay: enzyme kinetics of α-glucosidase inhibition (Lineweaver-Burk and secondary plots); format: biochemical, Saccharomyces cerevisiae; settings: for inhibition type against α-glucosidase: Lineweaver-Burk plots; for Ki: secondary plots, free enzyme, read-out: Ki (the inhibition constant of the free enzyme)
Method: (§1) Optical rotations were measured with an Anton Paar MCP 200 Automatic Polarimeter (Anton Paar, Graz, Austria). The UV data were recorded on a Thermo Genesys-10S UV/Vis spectrophotometer (Thermo Fisher Scientific, Waltham, MA, USA). ECD spectra were recorded with a JASCO J-815 spectropolarimeter (JASCO, Tsukuba, Japan) by using CH3OH as the solvent. Infrared spectra were obtained on a Nicolet IS5 FT-IR spectrophotometer (Thermo Fisher Scientific, Waltham, MA, USA). ^1H and ^13C NMR spectroscopic data were acquired with a Bruker Avance-500 spectrometer (Bruker, Bremen, Germany) using the solvent signals as a reference (CD3OD: δH 3.31/δC 49.00). HRESIMS data were obtained using an Agilent Accurate-Mass-Q-TOF LC/MS 6520 instrument (Agilent Technologies, Santa Clara, CA, USA) equipped with an electrospray ionization (ESI) source. Semi-preparative HPLC separation was performed on an Agilent 1260 instrument equipped with a variable-wavelength UV detector (Agilent Technologies Inc., CA, USA) using a YMC-pack ODS-A (10 × 250 mm, 5 μm, 2 mL/min, YMC CO., LTD., Kyoto, Japan).
The inhibition types of compounds 2 and 3 on α-glucosidase were determined by Lineweaver−Burk plots according to a previous report. The α-glucosidase inhibition kinetics were determined with selected concentrations of p-NPG (1.5625, 3.125, 6.25, 12.5 and 25 mM) under different concentrations of 2 and 3 (200, 400 and 800 μM) by keeping the enzyme concentration at 0.5 U/mL. The inhibition constant was determined by the second plots of the apparent Km/Vm or 1/Vm versus the concentration of the inhibitor.

α-glucosidase [2] = assay: α-glucosidase inhibition assay (p-NPG substrate); format: biochemical, Saccharomyces cerevisiae; settings: for IC50: 0.5 U/mL enzyme, p-NPG substrate, 37 °C; for α-glucosidase inhibition rate: at a concentration of 400 µM
Method: as §1
The α-glucosidase inhibitory activity assay was measured as described in previous reports. Briefly, 50 μL of 0.5 U/mL α-glucosidase and 25 μL of a series of solutions (0.1, 0.2, 0.4, 0.8 and 1.6 mM) of the test compounds 1−10 were added into 96-well plates. After incubation at 37 °C for 10 min, 25 μL of 25 mM p-NPG was added and further incubated at 37 °C for 10 min.

[3] = DPPH antioxidant scavenging assay; settings: 37 °C, 30 min, absorbance 517 nm
Method: The DPPH antioxidant scavenging assay was performed according to the previously reported method. Briefly, 50 µL of DPPH (0.34 mmol/L in EtOH) and 50 µL of a series of solutions (12.5, 25, 50, 100, and 200 μM) of the test compounds 1−10 were mixed in the wells of 96-well plates. Each mixture was incubated at 37 °C for 30 min in a dark environment. The absorbance was read at 517 nm using a microplate reader, employing distilled water as a blank for baseline correction. All experiments were performed in triplicate, and ascorbic acid was used as a positive control.

Row | SMILES | inhibition type against α-glucosidase (α-glucosidase [1]) | Ki (α-glucosidase [1]) | IC50 (α-glucosidase [2]) | α-glucosidase inhibition rate (α-glucosidase [2]; 400 µM) | IC50 [3] | α-glucosidase inhibition rate (α-glucosidase [2])
1 | CC12CC(O)C(O)C=C1c1cc(O)cc(O)c1C(=O)O2 (stereo not drawn) [Compound 2, Alternolide B] | mixed-type inhibitors | 347 µM | 725.9 ± 4.75 µM | 36.62% | – | –
2 | CC12CC(O)C(O)C=C1c1cc(O)cc(O)c1C(=O)O2 (stereo not drawn) [Compound 3, Alternolide C] | mixed-type inhibitors | 108 µM | 451 ± 6.95 µM | 49.24% | – | –
3 | COc1cc(O)c2c(=O)oc3c(O)c(O)cc(C)c3c2c1 [Compound 6, 3′-hydroxyalternariol 5-O-methyl ether] | – | – | – | – | 83.9 ± 4.14 µM | –
4 | COc1cc(O)c2c(=O)oc3cc(O)cc(CO)c3c2c1 [Compound 7, alternariol 1′-hydroxy-9-methyl ether] | – | – | 6.27 ± 0.68 µM | – | 23.6 ± 1.23 µM | 93.70%
5 | COc1cc2oc(=O)c3c(O)cc(O)cc3c2cc1O [Compound 8, altenuisol] | – | – | – | – | – | 37.29%
6 | COc1cc(O)c2c(=O)oc3c(c2c1)[C@@H](C)CC3=O [Compound 9, 1-deoxyrubralactone] | – | – | – | – | – | 53.95%
7 | O=C1O[C@H]([C@@H](O)CO)C(O)=C1O [ascorbic acid, reference compound] | – | – | – | – | 23.7 ± 1.03 µM | –
